The values that follow come from ChEMBL document CHEMBL1143311, “Structure-activity relationship and studies on the molecular mechanism of leishmanicidal N,C-coupled arylisoquinolinium salts” (J Med Chem, 2009).

Active and inactive are the calls of the source. The calls are words filed in the database; no cut-off is given here.

Data set [1] concerns Leishmania major. The experiment in a line: Antileishmanial activity against Leishmania major MHOM/IL/81/FE/BNI promastigotes by alamar blue assay. The format is functional, organism-based. The conditions noted are these: Leishmania major. In general terms: The colour change of resazurin is a common sign of viable cells or microbes.
Data set [2] is described as follows: Ratio of IC50 for BALB/c mouse peritoneal macrophages to EC50 for Leishmania major MHOM/IL/81/FE/BNI promastigotes.
Data set [3] deals with Macrophage. The data set is described as follows: Reduction of TNFalpha production in IFN-gamma-stimulated BALB/c mouse peritoneal macrophages infected with Leishmania major MHOM/IL/81/FE/BNI promastigotes at 3 uM after 24 hrs by sandwich ELISA. The format is functional, cell-based. For orientation: In an ELISA, binding on a coated surface is turned into a signal by an enzyme label.

Data set [4] deals with Macrophage. The data set is described as follows: Increase in TGFbeta secretion in IFN-gamma-stimulated BALB/c mouse peritoneal macrophages infected with Leishmania major MHOM/IL/81/FE/BNI promastigotes at 3 uM after 24 hrs by sandwich ELISA. In kind it is functional, cell-based.
The target in data set [5] is T1, Cytochrome P450 2D6 (Homo sapiens, UniProt P10635). The data set is described as follows: Inhibition of human CYP2D6 by Lineweaver-Burke plot. The format is ADME.
T1 sequence (P10635 whole entry): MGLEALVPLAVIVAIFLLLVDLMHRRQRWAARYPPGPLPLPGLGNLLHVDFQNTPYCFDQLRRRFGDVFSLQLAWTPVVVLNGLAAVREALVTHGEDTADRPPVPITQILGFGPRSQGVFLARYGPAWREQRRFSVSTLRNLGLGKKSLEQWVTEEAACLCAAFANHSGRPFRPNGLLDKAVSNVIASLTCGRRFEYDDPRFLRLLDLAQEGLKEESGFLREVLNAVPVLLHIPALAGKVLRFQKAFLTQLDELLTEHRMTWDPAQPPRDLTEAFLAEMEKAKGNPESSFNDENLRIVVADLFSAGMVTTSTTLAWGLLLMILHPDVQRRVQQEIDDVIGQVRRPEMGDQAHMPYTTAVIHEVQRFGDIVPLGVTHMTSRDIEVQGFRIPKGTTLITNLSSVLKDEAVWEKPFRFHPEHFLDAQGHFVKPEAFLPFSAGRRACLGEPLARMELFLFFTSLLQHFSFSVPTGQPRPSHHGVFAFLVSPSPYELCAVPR
Data set [6] has as its system Macrophage. The experiment in a line: Decrease in IL10 secretion in LPS-stimulated BALB/c mouse peritoneal macrophages infected with Leishmania major MHOM/IL/81/FE/BNI promastigotes at 3 uM after 24 hrs by sandwich ELISA. The format is functional, cell-based.
Data set [7] deals with Albumin (Bos taurus, UniProt P02769). The data set is described as follows: Binding affinity to bovine serum albumin by ultrafiltration method. In kind it is ADME. As to conditions: cattle, bovine serum albumin; read-out: PPB (converted).
Sequence of Albumin (P02769 whole entry): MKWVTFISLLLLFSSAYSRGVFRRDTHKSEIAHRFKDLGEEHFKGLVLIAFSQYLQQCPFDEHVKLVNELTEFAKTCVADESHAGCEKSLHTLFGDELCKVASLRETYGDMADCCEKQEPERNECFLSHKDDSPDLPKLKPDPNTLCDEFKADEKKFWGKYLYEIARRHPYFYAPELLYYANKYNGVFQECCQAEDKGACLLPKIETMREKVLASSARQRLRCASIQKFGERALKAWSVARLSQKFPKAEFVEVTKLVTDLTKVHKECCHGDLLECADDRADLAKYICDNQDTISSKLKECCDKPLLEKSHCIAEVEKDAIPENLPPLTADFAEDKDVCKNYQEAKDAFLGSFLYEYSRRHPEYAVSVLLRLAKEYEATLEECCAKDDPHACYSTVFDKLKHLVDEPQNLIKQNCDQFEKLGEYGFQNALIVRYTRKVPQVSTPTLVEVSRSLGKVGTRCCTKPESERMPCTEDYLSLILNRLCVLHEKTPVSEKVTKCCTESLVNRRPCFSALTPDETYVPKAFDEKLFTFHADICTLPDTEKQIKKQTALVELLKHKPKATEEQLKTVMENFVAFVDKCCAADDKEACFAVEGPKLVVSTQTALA
In data set [8] the test system is Macrophage. The data set is described as follows: Increase in nitric oxide production in BALB/c mouse peritoneal macrophages infected with Leishmania major MHOM/IL/81/FE/BNI promastigotes at 3 uM after 48 hrs by […] relative to noninfected cells. In kind it is functional.
Data set [9] deals with T1, Cytochrome P450 2D6. The experiment in a line: Inhibition of human CYP2D6 expressed in baculovirus-infected insect cell system. The format is ADME.
Data set [10] in a line: Cytotoxicity against mouse NIH/3T3 after 48 hrs by alamar blue assay. The format is cell-based. As to conditions: NIH3T3, 48 h.
Data set [11] has as its system Leishmania major. The experiment in a line: Antileishmanial activity against Leishmania major MHOM/IL/81/FE/BNI promastigotes infected in BALB/c mouse peritoneal macrophages assessed as decrease in infection rate after 48 hrs by fluorescence microscopy. In kind it is functional, organism-based.
Data set [12] addresses Cytochrome P450 2C19 (Homo sapiens, UniProt P33261). The data set is described as follows: Inhibition of human CYP2C19 at 100 uM by LC/ESI-MS analysis. The format is ADME.
Data set [13] deals with Macrophage. The data set is described as follows: Decrease in IL10 secretion in IFN-gamma-stimulated BALB/c mouse peritoneal macrophages infected with Leishmania major MHOM/IL/81/FE/BNI promastigotes at 3 uM after 24 hrs by sandwich ELISA. The format is functional, cell-based.
Data set [14] in a line: Selectivity index, ratio of IC50 for mouse J774.1 cells to IC50 for Leishmania major MHOM/IL/81/FE/BNI promastigotes. In kind it is toxicity. As to conditions: J774.1 cells, read-out: Ratio IC50.
In data set [15] the test system is Leishmania major. The data set is described as follows: Antileishmanial activity against Leishmania major MHOM/IL/81/FE/BNI promastigotes infected in BALB/c mouse peritoneal macrophages assessed as decrease in infection rate after 48 hrs by fluorescence microscopy in presence of interferon-gamma. In kind it is functional, organism-based.
For data set [16], the system named is Macrophage. The experiment in a line: Increase in TGFbeta secretion in BALB/c mouse peritoneal macrophages infected with Leishmania major MHOM/IL/81/FE/BNI promastigotes at 3 uM after 24 hrs by sandwich ELISA. In kind it is functional, cell-based.
Data set [17] can be described thus: Antiproliferative activity against mouse J774.1 cells after 48 hrs by alamar blue assay. In kind it is cell-based. The conditions noted are these: Mus musculus, J774.1, 48 h.
In data set [18] the target is Cytochrome P450 3A4 (Homo sapiens, UniProt P08684). The experiment in a line: Inhibition of human CYP3A4 at 100 uM by LC/ESI-MS analysis. The format is ADME.
Sequence of Cytochrome P450 3A4 (P08684 whole entry): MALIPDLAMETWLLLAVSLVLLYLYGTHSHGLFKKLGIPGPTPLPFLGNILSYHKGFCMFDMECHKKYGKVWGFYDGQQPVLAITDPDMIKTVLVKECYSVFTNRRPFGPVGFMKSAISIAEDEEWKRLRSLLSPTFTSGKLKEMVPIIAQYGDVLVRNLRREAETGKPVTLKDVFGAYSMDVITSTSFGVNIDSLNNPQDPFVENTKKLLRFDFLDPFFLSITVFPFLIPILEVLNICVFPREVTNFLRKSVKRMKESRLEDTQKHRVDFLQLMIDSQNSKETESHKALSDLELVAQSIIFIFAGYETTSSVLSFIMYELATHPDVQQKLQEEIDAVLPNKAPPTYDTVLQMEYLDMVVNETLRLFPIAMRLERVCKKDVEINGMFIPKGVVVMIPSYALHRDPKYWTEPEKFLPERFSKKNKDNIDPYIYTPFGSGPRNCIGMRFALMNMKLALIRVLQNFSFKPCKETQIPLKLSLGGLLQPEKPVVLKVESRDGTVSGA
Data set [19] in a line: Cytotoxicity against BALB/c mouse DC after 48 hrs by alamar blue assay.
Data set [20] concerns Macrophage. The data set is described as follows: Reduction of IL6 production in LPS-stimulated BALB/c mouse peritoneal macrophages infected with Leishmania major MHOM/IL/81/FE/BNI promastigotes at 3 uM after 24 hrs by sandwich ELISA. In kind it is functional, cell-based.
Data set [21] can be described thus: Cytotoxicity against BALB/c mouse peritoneal macrophages after 48 hrs by alamar blue assay. As to conditions: Macrophage. The format is cell-based.
Data set [22] concerns the target T1, Cytochrome P450 2D6. The data set is described as follows: Inhibition of human CYP2D6 at 1 to 100 uM by LC/ESI-MS analysis. The format is ADME.
Data set [23] relates to Macrophage. The experiment in a line: Reduction of IL6 production in IFN-gamma-stimulated BALB/c mouse peritoneal macrophages infected with Leishmania major MHOM/IL/81/FE/BNI promastigotes at 3 uM after 24 hrs by sandwich ELISA. The format is functional, cell-based.
In data set [24] the test system is Macrophage. The experiment in a line: Increase in nitric oxide production in IFN-gamma-stimulated BALB/c mouse peritoneal macrophages infected with Leishmania major MHOM/IL/81/FE/BNI promastigotes at 3 uM after 48 hrs by […] relative to noninfected cells. The format is functional.
Data set [25] deals with Macrophage. The experiment in a line: Increase in nitric oxide production in LPS-stimulated BALB/c mouse peritoneal macrophages infected with Leishmania major MHOM/IL/81/FE/BNI promastigotes at 3 uM after 48 hrs by […]. In kind it is functional, cell-based.
For data set [26], the target named is Cytochrome P450 2C9 (Homo sapiens, UniProt P11712). The data set is described as follows: Inhibition of human CYP2C9 at 100 uM by LC/ESI-MS analysis. In kind it is ADME.
Sequence of Cytochrome P450 2C9 (P11712 whole entry): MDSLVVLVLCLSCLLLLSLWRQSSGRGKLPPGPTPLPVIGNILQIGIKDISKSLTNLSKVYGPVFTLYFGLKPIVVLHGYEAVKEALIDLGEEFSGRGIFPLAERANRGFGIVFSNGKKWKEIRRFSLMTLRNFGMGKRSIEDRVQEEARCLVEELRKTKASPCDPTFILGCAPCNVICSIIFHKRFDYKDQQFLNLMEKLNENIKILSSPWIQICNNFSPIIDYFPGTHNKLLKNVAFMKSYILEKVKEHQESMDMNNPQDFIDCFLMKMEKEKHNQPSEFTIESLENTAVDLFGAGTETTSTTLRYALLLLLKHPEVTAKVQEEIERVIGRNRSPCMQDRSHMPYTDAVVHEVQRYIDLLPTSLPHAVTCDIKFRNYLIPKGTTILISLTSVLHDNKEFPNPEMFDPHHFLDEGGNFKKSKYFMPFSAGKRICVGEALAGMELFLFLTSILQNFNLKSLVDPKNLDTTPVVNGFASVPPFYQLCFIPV
The test system of data set [27] is Macrophage. The data set is described as follows: Reduction of TNFalpha production in LPS-stimulated BALB/c mouse peritoneal macrophages infected with Leishmania major MHOM/IL/81/FE/BNI promastigotes at 3 uM after 24 hrs by sandwich ELISA. The format is functional, cell-based.

Sequence of Cytochrome P450 2C19 (P33261 whole entry): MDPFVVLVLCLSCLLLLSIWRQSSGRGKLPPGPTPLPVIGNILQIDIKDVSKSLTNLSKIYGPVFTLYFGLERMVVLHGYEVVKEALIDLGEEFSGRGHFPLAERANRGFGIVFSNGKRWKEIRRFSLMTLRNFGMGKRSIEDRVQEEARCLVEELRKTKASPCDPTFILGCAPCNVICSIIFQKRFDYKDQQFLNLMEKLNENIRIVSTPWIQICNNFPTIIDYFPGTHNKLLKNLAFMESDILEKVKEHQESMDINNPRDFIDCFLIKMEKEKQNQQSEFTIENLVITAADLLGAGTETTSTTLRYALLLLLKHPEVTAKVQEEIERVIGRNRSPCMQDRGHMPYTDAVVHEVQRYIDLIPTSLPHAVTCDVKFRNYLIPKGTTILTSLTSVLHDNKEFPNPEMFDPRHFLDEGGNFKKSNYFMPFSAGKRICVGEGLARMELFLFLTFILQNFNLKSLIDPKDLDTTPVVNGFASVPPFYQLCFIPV

For `COc1cc(OC)c2c(C)[n+](-c3ccc(C(C)C)cc3)c(C)cc2c1.O=C([O-])C(F)(F)F`, the IC50 – broadly, the point on the concentration scale where inhibition reaches its midpoint – in data set [1] turned out to be 2 µM; in [9], 0.109 µM; in data set [10] it was 11.1 µM; in data set [17], 13.1 µM; in data set [19] it was 7.6 µM; in [21], 8.81 µM. The “Ratio IC50/EC50” value in data set [2] is 56. In addition, the outcome in data set [3], in [4], in data set [6], in [13], in [15] and in [16] was Active. Besides, the result in data set [20] and in data set [23] was Active. Besides, in data set [5], the Ki (as a rule, a dissociation constant, usually derived from enzyme kinetics or from competition with a known ligand) was 0.0547 µM. Also, the fraction unbound in [7] was 0.297. In addition, the “fold change (FC)” value in [8] is given as 2.7; in data set [24], 3. In addition, the EC50 (usually the concentration that produces a half-maximal response) in data set [11] was found to be 0.158 µM. Moreover, the Activity entry in data set [12] is on record as “Not Active”; in [18], “Not Active”; in data set [22], “Active”; in data set [26], “Not Active”. In data set [14], the selectivity ratio was 6.55. Also, the result in data set [25] was inactive.

`COc1cc(OC)c2c(C)[n+](-c3cccc4ccccc34)c(C)cc2c1`: the outcome in data set [3], in data set [4], in [27], in [16], in data set [20] and in data set [23] was Active. Further, the result in data set [6], in data set [13] and in data set [25] was inactive.
